Experimental data taken from patent publication US20240245059A1 (priority 2021, published 2024).

Experiments:
Fusarium graminearum = type: in vivo; conditions: 2 L/ha of 10% w/w solution; one application 2 days after inoculation; incidence of affected leaves vs untreated
Ca. Phytoplasma vitis = assay: Open field testing on phytoplasma, ddPCR quantification of DNA and RNA in Pervinca rosea; type: in vivo; conditions: 2 L/ha, endotherapy treatment, 48 hours after exposure, high values = reduced/no antibacterial activity; for % DNA: untreated 91; for % RNA: untreated 94
Description: Open Filed Testing on Phytoplasma—Antibacterial Activity on Ca. Phytoplasma vitis by Mixtures of Fatty Acids and Peptides
The activity on phytoplasma of three peptides (SEQ.ID.NO.: 1, 2 and 9), of crotonic and pelargonic acid and of the mixtures of these fatty acids with the aforementioned peptides were evaluated on Pervinca rosea suitably contaminated by Ca. Phytoplasma vitis.
The peptides of SEQ.ID.NO.: 1, 2 and 9 were dissolved in water at a concentration of 10% w/w. Aqueous solutions of crotonic and pelargonic acids were prepared at a concentration of 10% w/w. Aqueous solutions of peptides and solutions of fatty acids were mixed together, in order to obtain six different mixtures at a concentration of 10% w/w of peptide and acid.
The evaluation of the efficacy of the products used was evaluated with ddPCR (Droplet Digital PCR) technique for the quantification of the genetic material (DNA and RNA) after 48 hours from exposure to endotherapy treatment. High % DNA and RNA values are related to reduced/no antibacterial activity.

Compound	Efficacy (%) 1° check (Fusarium graminearum) [%]	Efficacy (%) 2° check (Fusarium graminearum) [%]	Efficacy (%) 3° check (Fusarium graminearum) [%]	% DNA (Ca. Phytoplasma vitis) [%]	% RNA (Ca. Phytoplasma vitis) [%]
C/C=C/C(=O)O [Crotonic acid]	8	7	10	76	84
CCCCCCCCC(=O)O [Pelargonic acid]	10	8	9	84	86
Hs_AFP1: plant defensin antimicrobial peptide, SEQ.ID.NO: 1, per se known (DGVKLCDVPSGTWSGHCGSSSKCSQQCKDREHFAYGGACHYQFPSVKCFCKRQC; None)	35	27.4	26.5	75	78
Ps_Def1: plant defensin antimicrobial peptide, SEQ.ID.NO: 9 (RMCKTPSGKFKGYCVNNTNCKNVCRTEGFPTGSCDFHVAGRKCYCYKPCP; None)	30	27	32	82	80
Rs_AFP2: plant defensin antimicrobial peptide, SEQ.ID.NO: 2, per se known (QKLCQRPSGTWSGVCGNNNACKNQCIRLEKARHGSCNYVFPAHKCICYFPC; None)	38	34	25.4	81	80
